This is an account of results in patent publication US9624170B2, “4-(piperrazin-1-yl)-pyrrolidin-2-one compounds as monoacylglycerol lipase (MAGL) inhibitors” (TAKEDA PHARMACEUTICAL COMPANY LIMITED, priority 2013, dated 2017).

As usually defined, the inhibition is the share of the control response that was lost under treatment. Low readings indicate a response near the control, high ones a response far below the control.

The target of the assay is T1, human MAGL (His-hMAGL) (Homo sapiens, UniProt Q99685).
T1 construct: made in house; host or cells: Escherichia coli BL21(DE3)
T1 sequence (Q99685 1-303): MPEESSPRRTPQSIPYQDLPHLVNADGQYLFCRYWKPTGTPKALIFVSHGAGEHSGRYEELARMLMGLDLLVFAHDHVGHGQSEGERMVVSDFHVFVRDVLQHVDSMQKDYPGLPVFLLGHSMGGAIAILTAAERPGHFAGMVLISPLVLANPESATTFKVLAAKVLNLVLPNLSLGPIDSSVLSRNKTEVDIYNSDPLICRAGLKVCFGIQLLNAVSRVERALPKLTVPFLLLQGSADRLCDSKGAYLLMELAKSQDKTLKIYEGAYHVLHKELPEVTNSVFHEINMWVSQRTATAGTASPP
In words: Measurement of MAGL inhibitory activity by absorbance. Type of assay: biochemical. As to conditions: 10 μM test compound; substrate p-nitrophenyl acetate, absorbance at 405 nm. From the text:
(1) Cloning of Human MGLL Encoding MAGL Protein and Construction of Expression Plasmid
Human MGLL cDNA was obtained by PCR using human ORF Clone (DNAForm; Clone ID: 100004585) as a template. For PCR, two kinds of primers: […]
The obtained PCR product was digested with Bam HI and Not I (Takara Bio Inc.), inserted into the Bam HI/Not I site of pET21HH(V) (pET21a (Novagen) inserted with His x6 and TEV Protease recognition sequence) by using Ligation High (Toyobo Co., Ltd.), and introduced into ECOS™ JM109 (Nippon Gene Co., Ltd.), whereby expression plasmid pET21HH(V)/His-hMGLLv2 for Escherichia coli was constructed. (2) Preparation of Recombinant Polyhistidine Tagged Human MAGL Protein
Recombinant His-hMAGL protein was prepared by transforming ECOS™ Competent E. coli BL21(DE3) (Nippon Gene Co., Ltd.) with the pET21HH(V)/His-hMGLLv2 plasmid prepared above. Escherichia coli obtained by transformation was inoculated to 10 mL of LB medium (1% peptone, 0.5% yeast extract, 0.5% sodium chloride, 0.01% ampicillin), and cultured at 30° C. for 16 hr. […] When the turbidity of the culture medium reached about 500 Klett unit, the culture temperature was lowered to 16° C., isopropyl-β-D-thiogalactopyranoside (IPTG) was added to a final concentration of 1 mM, and the mixture was further cultured for 19 hr. After the completion of culture, the culture medium was centrifuged (4° C., 6,000 rpm, 10 min) to give His-hMAGL expression Escherichia coli. Then, His-hMAGL expression Escherichia coli was suspended in 50 mM Tris-HCl (pH 8.0, 100 ml) containing 1% Triton X-100, 20 mM imidazole, 3 mM DTT, 5 U/mL Benzonase (Merck) and 150 mM NaCl, sufficiently cooled, and subjected to sonication at […]=60%, 15 sec/ON, 30 sec/OFF for 3 min using ¾″ solid type crushed horn of BRANSON Digital Sonifier 450 (Central Scientific Commerce, Inc.). Furthermore, the homogenate was centrifuged (4° C., 15,000 rpm, 15 min) and the supernatant was obtained. As the purification apparatus, AKTA explorer 10s (GE Healthcare Japan Corporation) was used at 4° C. To the obtained supernatant was added 5M NaCl to the final salt concentration of 0.3 M, and the mixture was flown through and adsorbed to 5 mL of Ni-NTA Superflow Cartridges (QIAGEN) equilibrated in advance with buffer A (50 mM Tris-HCl (pH 8.0) containing 0.05% TritonX-100, 1 mM DTT, 300 mM NaCl). The column was sufficiently washed with buffer A containing 20 mM imidazole and His-hMAGL was eluted with buffer A containing imidazole at a final concentration of 250 mM. The eluate was further subjected to gel filtration using HiLoad 26/600 Superdex 200 pg (GE Healthcare Japan Corporation) equilibrated with 50 mM Tris-HCl pH 8.0 containing 10% glycerol, 0.05% TritonX-100, 1 mM DTT, 150 mM NaCl. The eluted fraction was concentrated by Amicon Ultra-15 10K (Merck Millipore) to give purified His-hMAGL protein. The protein concentration was measured by BCA Protein Assay Kit (Thermo Fisher Scientific) using BSA as the standard.
(3) Measurement of MAGL Inhibitory Activity
His-hMAGL obtained above was diluted with enzyme reaction buffer (10 mM Tris-HCl, pH 7.5, 1 mM EDTA, 0.1 (w/v) % Triton X-100) to a concentration of 60 ng/mL. […] Thereafter, to each well was added 750 μM p-nitrophenyl acetate (Wako Pure Chemical Industries, Ltd.) by 5 μL, and the absorbance at 405 nm was measured every 2 minutes up to 10 minutes by EnVision (PerkinElmer). The amount of change was obtained by subtracting the absorbance measured immediately after the start of the reaction from the absorbance measured 10 min after the start of the reaction.
MAGL inhibitory rate (%) was calculated according to the following calculation formula. (1−(absorbance change amount of test compound addition group−absorbance change amount of enzyme addition-free group)[…](absorbance change amount of test compound addition-free group−absorbance change amount of enzyme addition-free group))×100
The molecule `O=C(c1nccs1)N1CCN(C2CC(=O)N(c3ccc4ccn(-c5ccc(F)cc5)c4c3)C2)CC1` (centres unmarked) [Example 20, 1-(1-(4-fluorophenyl)-1H-indol-6-yl)-4-(4-(1,3-thiazol-2-ylcarbonyl)piperazin-1-yl)pyrrolidin-2-one] displayed an inhibition at 10 µM of 93%.
`O=C(c1nccs1)N1CCN(C2CC(=O)N(c3ccc4c(cnn4-c4ccc(Cl)cn4)c3)C2)CC1` (centres unmarked) [Example 86, 1-(1-(5-chloropyridin-2-yl)-1H-indazol-5-yl)-4-(4-(1,3-thiazol-2-ylcarbonyl)piperazin-1-yl)pyrrolidin-2-one]: 10 µM produced 99% inhibition.
Then `O=C(c1nccs1)N1CCN(C2CC(=O)N(c3cccc(-c4cccnc4)c3)C2)CC1` (centres unmarked) [Example 65, 1-(3-(pyridin-3-yl)phenyl)-4-(4-(1,3-thiazol-2-ylcarbonyl)piperazin-1-yl)pyrrolidin-2-one], with 93%.
Then `O=C(c1nccs1)N1CCN(C2CC(=O)N(c3ccccc3OCc3ccccc3)C2)CC1` (centres unmarked) [Example 58, 1-(2-(benzyloxy)phenyl)-4-(4-(1,3-thiazol-2-ylcarbonyl)piperazin-1-yl)pyrrolidin-2-one], with 97%.
To `O=C(c1nccs1)N1CCN(C2CC(=O)N(c3ccc4cc(Br)ccc4c3)C2)CC1` (centres unmarked) [Example 71, 1-(6-brorno-2-naphthyl)-4-(4-(1,3-thiazol-2-ylcarbonyl)piperazin-1-yl)pyrrolidin-2-one] belongs 90%; to `O=C(c1cscn1)N1CCN(C2CC(=O)N(c3ccc(Oc4ccccc4)cc3)C2)CC1` (centres unmarked) [Example 6, 1-(4-phenoxyphenyl)-4-(4-(1,3-thiazol-4-ylcarbonyl)piperazin-1-yl)pyrrolidin-2-one], 93%; to `O=C(c1nccs1)N1CCN(C2CC(=O)N(c3ccc(Oc4ccncc4)cc3)C2)CC1` (centres unmarked) [Example 19, 1-(4-(pyridin-4-yloxy)phenyl)-4-(4-(1,3-thiazol-2-ylcarbonyl)piperazin-1-yl)pyrrolidin-2-one], 91%.
`O=C(c1nccs1)N1CCN(C2CC(=O)N(c3ccc4c(cnn4-c4ccc(F)cn4)c3)C2)CC1` (centres unmarked) [Example 81, 1-(1-(5-fluoropyridin-2-yl)-1H-indazol-5-yl)-4-(4-(1,3-thiazol-2-ylcarbonyl)piperazin-1-yl)pyrrolidin-2-one] had an inhibition at 10 µM of 97%.
To `O=C(c1nccs1)N1CCN(C2CC(=O)N(c3cccc(-c4ccncc4)c3)C2)CC1` (centres unmarked) [Example 66, 1-(3-(pyridin-4-yl)phenyl)-4-(4-(1,3-thiazol-2-ylcarbonyl)piperazin-1-yl)pyrrolidin-2-one] belongs 91%; to `O=C(c1nccs1)N1CCN(C2CC(=O)N(c3ccc(-c4ccc(Cl)cc4)cc3)C2)CC1` (centres unmarked) [Example 63, 1-(4′-chlorobiphenyl-4-yl)-4-(4-(1,3-thiazol-2-ylcarbonyl)piperazin-1-yl)pyrrolidin-2-one], 95%.
Then `O=C(c1nccs1)N1CCN(C2CC(=O)N(c3ccc(Oc4ccccc4)cn3)C2)CC1` (centres unmarked) [Example 18, 1-(5-phenoxypyridin-2-yl)-4-(4-(1,3-thiazol-2-ylcarbonyl)piperazin-1-yl)pyrrolidin-2-one], with 96%; and `O=C(c1nccs1)N1CCN(C2CC(=O)N(c3ccc4[nH]ncc4c3)C2)CC1` (centres unmarked) [Example 47, 1-(1H-indazol-5-yl)-4-(4-(1,3-thiazol-2-ylcarbonyl)piperazin-1-yl)pyrrolidin-2-one], with 96%; and `O=C(c1nccs1)N1CCN(C2CC(=O)N(c3ccc4c(ccn4-c4ccc(F)cc4)c3)C2)CC1` (centres unmarked) [Example 14, 1-(1-(4-Fluorophenyl)-1H-indol-5-yl)-4-(4-(1,3-thiazol-2-ylcarbonyl)piperazin-1-yl)pyrrolidin-2-one], with 98%.
Then `O=C(c1nccs1)N1CCN(C2CC(=O)N(c3ccc4c(ccn4-c4ccc(F)cn4)c3)C2)CC1` (centres unmarked) [Example 82, 1-(1-(5-fluoropyridin-2-yl)-1H-indol-5-yl)-4-(4-(1,3-thiazol-2-ylcarbonyl)piperazin-1-yl)pyrrolidin-2-one], with 95%; and `O=C(c1nccs1)N1CCN(C2CC(=O)N(c3ccc4c(ccn4-c4ncc(F)cn4)c3)C2)CC1` (centres unmarked) [Example 83, 1-(1-(5-fluoropyrirnidin-2-yl)-1H-indol-5-yl)-4-(4-(1,3-thiazol-2-ylcarbonyl)piperazin-1-yl)pyrrolidin-2-one], with 96%.
With `O=C(c1nccs1)N1CCN(C2CC(=O)N(c3cccc(Nc4ccc(F)cc4)c3)C2)CC1` (centres unmarked) [Example 77, 1-(3-((4-Fluorophenyl)amino)phenyl)-4-(4-(1,3-thiazol-2-ylcarbonyl)piperazin-1-yl)pyrrolidin-2-one], the inhibition at 10 µM amounted to 96%.
To `O=C(c1nccs1)N1CCN(C2CC(=O)N(c3ccc4c(ccn4-c4ncc(C(F)(F)F)cn4)c3)C2)CC1` (centres unmarked) [Example 52, 4-(4-(1,3-Thiazol-2-ylcarbonyl)piperazin-1-yl)-1-(1-(5-(trifluoromethyl)pyrimidin-2-yl)-1H-indol-5-yl)pyrrolidin-2-one] belongs 97%.
`O=C(c1nccs1)N1CCN(C2CC(=O)N(c3cccc(-c4ccc(F)cc4)c3)C2)CC1` (centres unmarked) [Example 76, 1-(4′-fluorobiphenyl-3-yl)-4-(4-(1,3-thiazol-2-ylcarbonyl)piperazin-1-yl)pyrrolidin-2-one] displayed an inhibition at 10 µM of 95%.
In turn, `O=C(c1nccs1)N1CCN(C2CC(=O)N(c3ccc4c(ccn4-c4ccc(C(F)(F)F)cn4)c3)C2)CC1` (centres unmarked) [Example 53, 4-(4-(1,3-Thiazol-2-ylcarbonyl)piperazin-1-yl)-1-(1-(5-(trifluoromethyl)pyridin-2-yl)-1H-indol-5-yl)pyrrolidin-2-one] gave an inhibition at 10 µM of 98%.
`O=C(c1nccs1)N1CCN(C2CC(=O)N(c3cnc4c(ccn4-c4ccc(F)cc4)c3)C2)CC1` (centres unmarked) [Example 51, 1-(1-(4-fluorophenyl)-1H-pyrrolo[2,3-b]pyridin-5-yl)-4-(4-(1,3-thiazol-2-ylcarbonyl)piperazin-1-yl)pyrrolidin-2-one] had an inhibition at 10 µM of 97%.
Then `O=C(c1nccs1)N1CCN(C2CC(=O)N(c3ccc4c(c3)oc3ccccc34)C2)CC1` (centres unmarked) [Example 72, 1-(Dibenzo[b,d]furan-3-yl)-4-(4-(1,3-thiazol-2-ylcarbonyl)piperazin-1-yl)pyrrolidin-2-one], with 92%; and `O=C(c1nccs1)N1CCN(C2CC(=O)N(c3ccc(OCc4ccccc4)cc3)C2)CC1` (centres unmarked) [Example 60, 1-(4-(Benzyloxy)phenyl)-4-(4-(1,3-thiazol-2-ylcarbonyl)piperazin-1-yl)pyrrolidin-2-one], with 98%; and `O=C(c1nccs1)N1CCN(C2CC(=O)N(c3ccc(Cc4ccccc4)cc3)C2)CC1` (centres unmarked) [Example 38, 1-(4-benzylphenyl)-4-(4-(1,3-thiazol-2-ylcarbonyl)piperazin-1-yl)pyrrolidin-2-one], with 99%.
